# Key:
# Experiment in all cases: relative viability (nuclei count vs DMSO), 5 days (fraction); higher = more cells survive
# [1] = compound: CC(=O)Nc1cccc(-n2c(=O)n(C3CC3)c(=O)c3c(Nc4ccc(I)cc4F)n(C)c(=O)c(C)c32)c1 [Trametinib] + CC(C)C[C@H](NC(=O)[C@H](Cc1ccccc1)NC(=O)c1cnccn1)B(O)O [Bortezomib] (partner 0.002 µM)
# Procedure, shortened: (§1)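 Five library-drug doses in √10 steps were combined with a fixed anchor-drug dose, or a single drug was given alone, by pin tool to lung cancer cell lines in 1536-well plates the day after seeding. Nuclei were stained and counted after 5 days. Relative viability is the nuclei count in treated wells over that in vehicle wells, taken as the median of duplicate plates.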
# [2] = compound: CC(=O)Nc1cccc(-n2c(=O)n(C3CC3)c(=O)c3c(Nc4ccc(I)cc4F)n(C)c(=O)c(C)c32)c1 [Trametinib] + Nc1ncn([C@H]2C[C@H](O)[C@@H](CO)O2)c(=O)n1 [Decitabine] (partner 2 µM)
# Procedure, shortened: as §1
# [3] = compound: CN1C=C(C2=CC=CC=C21)/C=C\3/C4=C(C=CC=N4)NC3=O + CS(=O)(=O)N1CCN(Cc2cc3nc(-c4cccc5[nH]ncc45)nc(N4CCOCC4)c3s2)CC1 [Pictilisib] (partner 1 µM)
# Procedure, shortened: as §1
# [4] = compound: CN1C=C(C2=CC=CC=C21)/C=C\3/C4=C(C=CC=N4)NC3=O + Nc1ncn([C@H]2C[C@H](O)[C@@H](CO)O2)c(=O)n1 [Decitabine] (partner 2 µM)
# Procedure, shortened: as §1
cell line,measurement,setting,value
UMC-11,relative viability,[1]; first compound 0.0025 µM,0.777
same,relative viability,[1]; first compound 0.007906 µM,0.836
same,relative viability,[1]; first compound 0.025 µM,0.254
same,relative viability,[1]; first compound 0.07906 µM,0.837
same,relative viability,[1]; first compound 0.25 µM,0.663
same,relative viability,[2]; first compound 0.0025 µM,0.548
same,relative viability,[2]; first compound 0.007906 µM,0.674
same,relative viability,[2]; first compound 0.25 µM,0.471
same,relative viability,[3]; first compound 0.02 µM,0.742
same,relative viability,[3]; first compound 0.06325 µM,0.553
same,relative viability,[3]; first compound 0.2 µM,0.549
same,relative viability,[3]; first compound 0.6325 µM,0.763
same,relative viability,[3]; first compound 2 µM,0.875
same,relative viability,[4]; first compound 0.02 µM,0.604
same,relative viability,[4]; first compound 0.06325 µM,0.631
same,relative viability,[4]; first compound 0.2 µM,0.497
same,relative viability,[4]; first compound 0.6325 µM,0.395
same,relative viability,[4]; first compound 2 µM,0.646

# Source: the supplement of paper PMC10307832
